Laboratory results published in patent publication US9480259B2, “Pyrazolopyrans having herbicidal and pharmaceutical properties” (BASF SE, priority 2012, dated 2016).

target: Arabidopsis thaliana SHMT; experiment: SHMT activity assay (ED50 SHMT), coupled with N5,N10-CH2-THF dehydrogenase, NADH at 340 nm; type: biochemical; conditions: Table 2, Arabidopsis thaliana SHMT enzyme assay; values given as upper bounds
Experimental: Determination of the ED50 SHMT was carried out as described hereinunder.
Purification of Arabidopsis thaliana SHMT
The following buffers were used during the purification protocol:
Buffer A (Lysis and Wash Buffer): • 20 mM Na-Phosphat (pH 7,4) • 500 mM NaCI • 40 mM Imidazole • 1.0 mM L-Serine • 0.5 mM Pyridoxal-5-phosphate • 0.5 mM DTT
Buffer B (Elution Buffer): • 20 mM Na-Phosphat (pH 7,4) • 500 mM NaCl • 250 mM Imidazole • 1.0 mM L-Serine • 0.5 mM Pyridoxal-5-phosphate • 0.5 mM DTT
All procedures were conducted at 4° C. or on ice. Pellets were suspended in Buffer A containing 1 mg/ml DNAse +Complete EDTA-free protease inhibitor tablet. Cells were lysed using sonication or a French Press device, using standard settings. Lysis was centrifuged at 40000×g for 25 minutes. The supernatant was filtered (0.22 μM) before loading onto a Ni-NTA column.
A gravity flow column containing Ni-NTA resin was equilibrated with 10 CV Buffer A and loaded with filtered cell lysate. The column was then washed with 10 CV Buffer A. Elution was afforded using Buffer B and collected manually as mini-factions. EDTA was added after elution to a final concentration of 1 mM. Fractions were pooled on the basis of the correct band for SHMT visualised via SDS-PAGE and staining.
SHMT Assay Buffer: • 50 mM KH2PO4 (pH 7,4) • 2.0 mM NAD+ • 7.5 mM DTT • 0.3 mM Tetrahydrofolic acid • 4% DMSO
Reaction Start: 20 mM L-Serine
The rate of N5,N10-CH2-THF formation catalyzed by SHMT was monitored at 340 nm by coupling with excess N5,N10-CH2-THF dehydrogenase, which converts NAD+to NADH. Reactions were initiated by adding 20 mM L-Serine. Inhibition of initial velocity was determined by adding various inhibitors of the SHMT reaction and monitored as described. Reactions were measured in a Bio Tek micro titer plate reader following the change in absorption with the formation of NADH for 30 mimnutes.

Row | EC50 [nM] | SMILES
1 | < 10 | Cc1n[nH]c2c1C(c1cc(Cl)cc(Oc3ccc(Cl)cc3)c1)(C1CC1)C(C#N)=C(N)O2 (racemic) [Compound 2.342]
2 | < 10 | Cc1n[nH]c2c1C(c1cc(Cl)cc(Oc3cccc(Cl)c3)c1)(C1CC1)C(C#N)=C(N)O2 (racemic) [Compound 2.347]
3 | < 10 | Cc1n[nH]c2c1C(c1cc(Cl)cc(C#N)c1)(C1(F)CC1)C(C#N)=C(N)O2 (racemic) [Compound 2.379]

same assay, conditions: Table 2; values given as upper bounds

Row | SMILES | EC50 [nM]
4 | CCC1(c2ccc(F)c(Br)c2)C(C#N)=C(N)Oc2[nH]nc(C)c21 (racemic) [Compound 2.13.] | < 100
5 | CCC1(c2ccc(OC(C)(C)C)cc2)C(C#N)=C(N)Oc2[nH]nc(C)c21 (racemic) [Compound 2.27.] | < 10000
6 | CCC1(c2cccc(C)c2)C(C#N)=C(N)Oc2[nH]nc(C)c21 (racemic) [Compound 2.42.] | < 10000
7 | CCOC(=O)COc1ccc(C2(CC)C(C#N)=C(N)Oc3[nH]nc(C)c32)cc1[N+](=O)[O-] (racemic) [Compound 2.43.] | < 1000
8 | CCCCC1(c2cc(Cl)cc(Cl)c2)C(C#N)=C(N)Oc2[nH]nc(C)c21 (racemic) [Compound 2.92.] | < 10000
9 | CCCc1n[nH]c2c1C(CC)(c1cccc(C(F)(F)F)c1)C(C#N)=C(N)O2 (racemic) [Compound 2.99.] | < 10000
10 | N#CC1=C(N)Oc2[nH]nc(C3CC3)c2C1(c1cc(Cl)cc(Cl)c1)C1CCC1 (racemic) [Compound 2.156.] | < 100
11 | CCC1(c2cc(F)cc(Br)c2)C(C#N)=C(N)Oc2[nH]nc(C)c21 (racemic) [Compound 2.467] | < 100
12 | Cc1n[nH]c2c1C(c1cc(Cl)cc(Cl)c1)(C1(F)COC1)C(C#N)=C(N)O2 (racemic) [Compound 2.478] | < 100
13 | Cc1n[nH]c2c1C(c1cc(Cl)cc(OCCC(=O)O)c1)(C1CCC1)C(C#N)=C(N)O2 (racemic) [Compound 2.505] | < 10
14 | COC(=O)c1cc(-c2cc(Cl)cc(C3(C4CCC4)C(C#N)=C(N)Oc4[nH]nc(C)c43)c2)ccc1Cl (racemic) [Compound 2.514] | < 10
15 | CCC1(c2cc(C#N)cc(C(F)(F)F)c2)C(C#N)=C(N)Oc2[nH]nc(C)c21 (racemic) [Compound 2.530] | < 10
16 | CCC1(c2ccc(F)cc2)C(C#N)=C(N)Oc2[nH]nc(C)c21 (centres unmarked) [Compound 2.2.] | < 10000
17 | CCC1(c2ccc(NC(C)=O)cc2)C(C#N)=C(N)Oc2[nH]nc(C)c21 (centres unmarked) [Compound 2.6.] | < 10000
18 | CCC1(c2ccc(C(C)(C)C)cc2)C(C#N)=C(N)Oc2[nH]nc(C)c21 (centres unmarked) [Compound 2.7.] | < 10000
19 | CCC1(c2cccc(F)c2)C(C#N)=C(N)Oc2[nH]nc(C)c21 (centres unmarked) [Compound 2.15.] | < 10000
20 | CCC1(c2ccc(F)c(F)c2)C(C#N)=C(N)Oc2[nH]nc(C)c21 (centres unmarked) [Compound 2.16.] | < 10000
21 | CCC1(c2ccc(F)c(Cl)c2)C(C#N)=C(N)Oc2[nH]nc(C)c21 (centres unmarked) [Compound 2.19.] | < 100
22 | CCC1(c2cc(F)cc(Cl)c2)C(C#N)=C(N)Oc2[nH]nc(C)c21 (centres unmarked) [Compound 2.20.] | < 1000
23 | CCC1(c2ccc(OC)c(OC)c2)C(C#N)=C(N)Oc2[nH]nc(C)c21 (centres unmarked) [Compound 2.21.] | < 1000

Now from value to compound:

Row | EC50 [nM] | SMILES
24 | < 1000 | CCC1(c2cccc(F)c2)C(C#N)=C(N)Oc2[nH]nc(C)c21 (racemic) [Compound 2.9.]
25 | < 10000 | CCCCC1(c2cccc(Cl)c2)C(C#N)=C(N)Oc2[nH]nc(C)c21 (racemic) [Compound 2.91.]
26 | < 10000 | CCC1(c2cccc(C(F)(F)F)c2)C(C#N)=C(N)Oc2[nH]nc(COC)c21 (racemic) [Compound 2.97.]
27 | < 1000 | Cc1n[nH]c2c1C(c1ccc(OC(F)(F)F)cc1)(C(C)C)C(C#N)=C(N)O2 (racemic) [Compound 2.145.]
28 | < 10000 | CCC1(c2ccc(Oc3ccccc3)cc2)C(C#N)=C(N)Oc2[nH]nc(C(C)C)c21 (racemic) [Compound 2.160.]
29 | < 10 | Cc1n[nH]c2c1C(c1cc(C(F)(F)F)cc(C(F)(F)F)c1)(C1(F)COC1)C(C#N)=C(N)O2 (racemic) [Compound 2.501]
30 | < 10 | COC(=O)c1ccc(-c2cc(C#N)cc(C3(C4CCC4)C(C#N)=C(N)Oc4[nH]nc(C)c43)c2)cc1F (racemic) [Compound 2.521]
31 | < 10 | Cc1n[nH]c2c1C(c1cc(Cl)cc(-c3cccc(NS(C)(=O)=O)c3)c1)(C1CCC1)C(C#N)=C(N)O2 (racemic) [Compound 2.527]
32 | < 10 | Cc1n[nH]c2c1C(c1cc(Cl)cc(-c3ccc(NS(C)(=O)=O)cc3)c1)(C1CCC1)C(C#N)=C(N)O2 (racemic) [Compound 2.528]
33 | < 100 | Cc1n[nH]c2c1C(c1cc(C(F)(F)F)cc(C(F)(F)F)c1)(C1CC(O)C1)C(C#N)=C(N)O2 (racemic) [Compound 2.540]
34 | < 1000 | Cc1n[nH]c2c1C(c1ccc(CC(=O)O)c(C#N)c1)(C1CCC1)C(C#N)=C(N)O2 (racemic) [Compound 2.541]
35 | < 100 | CCC1(c2cccc(Oc3ccccc3)c2)C(C#N)=C(N)Oc2[nH]nc(C)c21 (centres unmarked) [Compound 2.1.]
36 | < 1000 | CCC1(c2cccc(Br)c2)C(C#N)=C(N)Oc2[nH]nc(C)c21 (centres unmarked) [Compound 2.4.]
37 | < 1000 | CCC1(c2ccc(Oc3ccccc3)cc2)C(C#N)=C(N)Oc2[nH]nc(C)c21 (centres unmarked) [Compound 2.8.]
38 | < 1000 | CCC1(c2ccc(F)c(Oc3ccccc3)c2)C(C#N)=C(N)Oc2[nH]nc(C)c21 (centres unmarked) [Compound 2.11.]
39 | < 100 | CCC1(c2cc(Cl)cc(Cl)c2)C(C#N)=C(N)Oc2[nH]nc(C)c21 (centres unmarked) [Compound 2.12.]
40 | < 100 | CCC1(c2ccc(Cl)c(Cl)c2)C(C#N)=C(N)Oc2[nH]nc(C)c21 (centres unmarked) [Compound 2.14.]
41 | < 1000 | CCC1(c2cc(F)cc(F)c2)C(C#N)=C(N)Oc2[nH]nc(C)c21 (centres unmarked) [Compound 2.17.]
42 | < 1000 | CCC1(c2cc(F)c(F)c(F)c2)C(C#N)=C(N)Oc2[nH]nc(C)c21 (centres unmarked) [Compound 2.18.]
43 | < 1000 | CCC1(c2ccc(OC)cc2)C(C#N)=C(N)Oc2[nH]nc(C)c21 (centres unmarked) [Compound 2.22.]
44 | < 10000 | CCC1(c2ccc(Oc3ccc(C(F)(F)F)cc3Cl)c(C)c2)C(C#N)=C(N)Oc2[nH]nc(C)c21 (centres unmarked) [Compound 2.23.]

same assay, conditions: inhibition of initial velocity of Arabidopsis thaliana SHMT

Row | SMILES | EC50 [nM]
45 | Cc1n[nH]c2c1C(c1ccc3c(c1)OCCO3)(C1(F)CC1)C(C#N)=C(N)O2 (racemic) [Compound 4.51] | < 100
46 | Cc1csc(C2(C3CC3)C(C#N)=C(N)Oc3[nH]nc(C)c32)c1 (racemic) [Compound 4.70] | < 1000
47 | COc1ccc2cc(C3(C4(F)CC4)C(C#N)=C(N)Oc4[nH]ncc43)ccc2c1 (racemic) [Compound 4.75] | < 1000

Further lines, results first:

Row | EC50 [nM] | SMILES
48 | < 10 | Cc1n[nH]c2c1C(c1ccc(-c3ccsc3)s1)(C1CCC1)C(C#N)=C(N)O2 (racemic) [Compound 4.21]
49 | < 10 | COc1ccc2cc(C3(C4(F)CC4)C(C#N)=C(N)Oc4[nH]nc(C)c43)ccc2c1 (racemic) [Compound 4.40]
50 | < 100 | Cc1n[nH]c2c1C(c1nc3c(Br)cccc3o1)(C1CCC1)C(C#N)=C(N)O2 (racemic) [Compound 4.58]
51 | < 100 | Cc1n[nH]c2c1C(c1ccc3ccccc3c1)(C1(F)CC1)C(C#N)=C(N)O2 (racemic) [Compound 4.59]
52 | < 1000 | CCC1(CCC2CCCCC2)C(C#N)=C(N)Oc2[nH]nc(C)c21 (racemic) [Compound 4.65]
53 | < 10000 | Cc1n[nH]c2c1C(c1ccc3c(c1)OC(F)(F)O3)(C1(F)COC1)C(C#N)=C(N)O2 (racemic) [Compound 4.84]
